Legend:
Type in all cases: in vivo
[1] = test system: barnyardgrass (Echinochloa crus-galli); test: Test A preemergence barnyardgrass; details: 0 to 100 scale; for Barnyardgrass plant response rating: 125 g ai/ha, 0 no effect, 100 complete control; for Plant response rating, Barnyardgrass: 500 g ai/ha, 0 is no effect, 100 is complete control
Method in brief: (§1)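 Directed soil spray at planting gives preemergence data; foliar application to one- to two-leaf plants gives postemergence data. Response is visual injury relative to untreated controls about 10 d after treatment, scored 0–100.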

[2] = test system: crabgrass, large (large crabgrass, Digitaria sanguinalis); test: Test A preemergence crabgrass, large; details: 0 to 100 scale; for Crabgrass, Large plant response rating: 125 g ai/ha, 0 no effect, 100 complete control; for Plant response rating, Crabgrass, Large: 500 g ai/ha, 0 is no effect, 100 is complete control
Excerpt: (§2) Seeds of plant species selected from barnyardgrass (Echinochloa crus-galli), kochia (Kochia scoparia), ragweed (common ragweed, Ambrosia elatior), ryegrass, Italian (Italian ryegrass, Lolium multiflorum), crabgrass, large (large crabgrass, Digitaria sanguinalis), foxtail, giant (giant foxtail, Setaria faberii), morningglory (Ipomoea spp.), pigweed (Amaranthus retroflexus), velvetleaf (Abutilon theophrasti), wheat (Triticum aestivum), and corn (Zea mays) were planted into a blend of loam soil and sand and treated preemergence with a directed soil spray using test chemicals formulated in a non-phytotoxic solvent mixture which included a surfactant.
(§3) At the same time, plants selected from these crop and weed species and also blackgrass (Alopecurus myosuroides), and galium (catchweed bedstraw, Galium aparine) were planted in pots containing the same blend of loam soil and sand and treated with postemergence applications of test chemicals formulated in the same manner. Plants ranged in height from 2 to 10 cm and were in the one- to two-leaf stage for the postemergence treatment. Treated plants and untreated controls were maintained in a greenhouse for approximately 10 d, after which time all treated plants were compared to untreated controls and visually evaluated for injury. Plant response ratings, summarized in Table A, are based on a 0 to 100 scale where 0 is no effect and 100 is complete control. A dash (-) response means no test result.

[3] = test system: foxtail, giant (giant foxtail, Setaria faberii); test: Test A preemergence foxtail, giant; details: 0 to 100 scale, 0 no effect, 100 complete control
Method in brief: as §1

[4] = test system: morningglory (Ipomoea spp.); test: Test A preemergence morningglory; details: 0 to 100 scale, 0 no effect, 100 complete control
Excerpt: as §2, §3

[5] = test system: pigweed (Amaranthus retroflexus); test: Test A preemergence pigweed; details: 0 to 100 scale, 0 no effect, 100 complete control
Method in brief: as §1

[6] = test system: velvetleaf (Abutilon theophrasti); test: Test A preemergence velvetleaf; details: 0 to 100 scale, 0 no effect, 100 complete control
Excerpt: as §2, §3

[7] = test system: wheat (Triticum aestivum); test: Test A preemergence wheat; details: 0 to 100 scale, 0 no effect, 100 complete control
Excerpt: as §2, §3

[8] = test system: corn (Zea mays); test: Test A preemergence corn; details: 0 to 100 scale; for Corn plant response rating: 125 g ai/ha, 0 no effect, 100 complete control; for Plant response rating, Corn: 500 g ai/ha, 0 is no effect, 100 is complete control
Excerpt: as §2, §3

[9] = test system: barnyardgrass (Echinochloa crus-galli); test: Test A postemergence barnyardgrass; details: 0 to 100 scale, 0 is no effect, 100 is complete control
Method in brief: as §1

[10] = test system: crabgrass, large (large crabgrass, Digitaria sanguinalis); test: Test A postemergence crabgrass, large; details: 0 to 100 scale, 0 is no effect, 100 is complete control
Excerpt: as §2, §3

[11] = test system: foxtail, giant (giant foxtail, Setaria faberii); test: Test A postemergence foxtail, giant; details: 0 to 100 scale, 0 is no effect, 100 is complete control
Method in brief: as §1

[12] = test system: morningglory (Ipomoea spp.); test: Test A postemergence morningglory; details: 0 to 100 scale, 0 is no effect, 100 is complete control
Excerpt: as §2, §3

[13] = test system: pigweed (Amaranthus retroflexus); test: Test A postemergence pigweed; details: 0 to 100 scale, 0 is no effect, 100 is complete control
Method in brief: as §1

[14] = test system: velvetleaf (Abutilon theophrasti); test: Test A postemergence velvetleaf; details: 0 to 100 scale, 0 is no effect, 100 is complete control
Excerpt: as §2, §3

[15] = test system: wheat (Triticum aestivum); test: Test A postemergence wheat; details: 0 to 100 scale, 0 is no effect, 100 is complete control
Method in brief: as §1

[16] = test system: corn (Zea mays); test: Test A postemergence corn; details: 0 to 100 scale, 0 is no effect, 100 is complete control
Method in brief: as §1

[17] = test system: rice (Oryza sativa); test: Test B flooded paddy test rice; details: Table B, Flood, 250 g ai/ha, scale 0 to 100
Method in brief: (§4)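 Water-applied paddy treatment: compound dosed into 3 cm flood on 2-leaf plants, read visually versus controls after 13 to 15 d.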

[18] = test system: sedge, umbrella (small-flower umbrella sedge, Cyperus difformis); test: Test B flooded paddy test sedge, umbrella; details: Table B, Flood, 250 g ai/ha, scale 0 to 100
Method in brief: as §4

[19] = test system: ducksalad (Heteranthera limosa); test: Test B flooded paddy test ducksalad; details: Table B, Flood, 250 g ai/ha, scale 0 to 100
Method in brief: as §4

[20] = test system: barnyardgrass (Echinochloa crus-galli); test: Test B flooded paddy test barnyardgrass; details: Table B, Flood, 250 g ai/ha, scale 0 to 100
Method in brief: as §4

Row | Structure (SMILES) | Barnyardgrass plant response rating [1] | Plant response rating, Barnyardgrass [1] | Crabgrass, Large plant response rating [2] | Plant response rating, Crabgrass, Large [2] | Foxtail, Giant plant response rating ([3]; 125 g ai/ha) | Foxtail, Giant plant response rating ([3]; 500 g ai/ha) | Morningglory plant response rating ([4]; 125 g ai/ha) | Morningglory plant response rating ([4]; 500 g ai/ha) | Pigweed plant response rating ([5]; 125 g ai/ha) | Pigweed plant response rating ([5]; 500 g ai/ha) | Velvetleaf plant response rating ([6]; 125 g ai/ha) | Velvetleaf plant response rating ([6]; 500 g ai/ha) | Wheat plant response rating ([7]; 125 g ai/ha) | Wheat plant response rating ([7]; 500 g ai/ha) | Corn plant response rating [8] | Plant response rating, Corn [8] | Plant response rating, Barnyardgrass ([9]; 125 g ai/ha) | Plant response rating, Barnyardgrass ([9]; 500 g ai/ha) | Plant response rating, Crabgrass, Large ([10]; 125 g ai/ha) | Plant response rating, Crabgrass, Large ([10]; 500 g ai/ha) | other results
1 | O=C1NCCC(c2ccc(F)c(F)c2)C1C(=O)Nc1ccccc1F (racemic) [Compound 1] | 0 | 70 | 80 | 90 | 30 | 90 | 0 | 0 | 0 | 0 | 0 | 0 | 0 | 0 | 0 | 0 | 0 | 50 | 30 | 70 | Plant response rating, Foxtail, Giant ([11]; 125 g ai/ha): 0; Plant response rating, Foxtail, Giant ([11]; 500 g ai/ha): 0; Plant response rating, Morningglory ([12]; 125 g ai/ha): 0; Plant response rating, Morningglory ([12]; 500 g ai/ha): 0; Plant response rating, Pigweed ([13]; 125 g ai/ha): 0; Plant response rating, Pigweed ([13]; 500 g ai/ha): 0; Plant response rating, Velvetleaf ([14]; 125 g ai/ha): 0; Plant response rating, Velvetleaf ([14]; 500 g ai/ha): 0; Plant response rating, Wheat ([15]; 125 g ai/ha): 0; Plant response rating, Wheat ([15]; 500 g ai/ha): 0; Plant response rating, Corn ([16]; 125 g ai/ha): 0; Plant response rating, Corn ([16]; 500 g ai/ha): 0; Plant response rating [17]: 0; Plant response rating [18]: 0; Plant response rating [19]: 0; Plant response rating [20]: 0
2 | O=C1NCCC(c2ccccc2)C1C(=O)Nc1ccccc1C(F)(F)F (racemic) [Compound 2] | 0 | 20 | 70 | 90 | 10 | 70 | 0 | 0 | 0 | 0 | 0 | 0 | 0 | 0 | 0 | 0 | 0 | 0 | 0 | 10 | Plant response rating, Foxtail, Giant ([11]; 125 g ai/ha): 0; Plant response rating, Foxtail, Giant ([11]; 500 g ai/ha): 0; Plant response rating, Morningglory ([12]; 125 g ai/ha): 0; Plant response rating, Morningglory ([12]; 500 g ai/ha): 0; Plant response rating, Pigweed ([13]; 125 g ai/ha): 0; Plant response rating, Pigweed ([13]; 500 g ai/ha): 0; Plant response rating, Velvetleaf ([14]; 125 g ai/ha): 0; Plant response rating, Velvetleaf ([14]; 500 g ai/ha): 0; Plant response rating, Wheat ([15]; 125 g ai/ha): 0; Plant response rating, Wheat ([15]; 500 g ai/ha): 0; Plant response rating, Corn ([16]; 125 g ai/ha): 0; Plant response rating, Corn ([16]; 500 g ai/ha): 0; Plant response rating [17]: 0; Plant response rating [18]: 0; Plant response rating [19]: 0; Plant response rating [20]: 0
3 | O=C1NCCC(c2ccccc2)C1C(=O)Nc1ccccc1F (racemic) [Compound 3] | 0 | 0 | 0 | 30 | 0 | 0 | 0 | 0 | 0 | 0 | 0 | 0 | 0 | 20 | 0 | 0 | 0 | 0 | 0 | 0 | Plant response rating, Foxtail, Giant ([11]; 125 g ai/ha): 0; Plant response rating, Foxtail, Giant ([11]; 500 g ai/ha): 0; Plant response rating, Morningglory ([12]; 125 g ai/ha): 0; Plant response rating, Morningglory ([12]; 500 g ai/ha): 0; Plant response rating, Pigweed ([13]; 125 g ai/ha): 0; Plant response rating, Pigweed ([13]; 500 g ai/ha): 0; Plant response rating, Velvetleaf ([14]; 125 g ai/ha): 0; Plant response rating, Velvetleaf ([14]; 500 g ai/ha): 0; Plant response rating, Wheat ([15]; 125 g ai/ha): 0; Plant response rating, Wheat ([15]; 500 g ai/ha): 0; Plant response rating, Corn ([16]; 125 g ai/ha): 0; Plant response rating, Corn ([16]; 500 g ai/ha): 0; Plant response rating [17]: 0; Plant response rating [18]: 0; Plant response rating [19]: 0; Plant response rating [20]: 0
4 | O=C1NCCC(c2ccc(F)cc2)C1C(=O)Nc1ccccc1C(F)(F)F (racemic) [Compound 4] | 0 | 50 | 90 | 90 | 10 | 70 | 0 | 0 | 0 | 0 | 0 | 0 | 0 | 0 | 0 | 0 | 0 | 20 | 40 | 70 | Plant response rating, Foxtail, Giant ([11]; 125 g ai/ha): 0; Plant response rating, Foxtail, Giant ([11]; 500 g ai/ha): 0; Plant response rating, Morningglory ([12]; 125 g ai/ha): 0; Plant response rating, Morningglory ([12]; 500 g ai/ha): 0; Plant response rating, Pigweed ([13]; 125 g ai/ha): 0; Plant response rating, Pigweed ([13]; 500 g ai/ha): 0; Plant response rating, Velvetleaf ([14]; 125 g ai/ha): 0; Plant response rating, Velvetleaf ([14]; 500 g ai/ha): 0; Plant response rating, Wheat ([15]; 125 g ai/ha): 0; Plant response rating, Wheat ([15]; 500 g ai/ha): 0; Plant response rating, Corn ([16]; 125 g ai/ha): 0; Plant response rating, Corn ([16]; 500 g ai/ha): 0; Plant response rating [17]: 0; Plant response rating [18]: 0; Plant response rating [19]: 0; Plant response rating [20]: 0
5 | O=C1NCCC(c2ccc(F)cc2)C1C(=O)Nc1ccccc1F (racemic) [Compound 5] | 0 | 30 | 60 | 90 | 30 | 50 | 0 | 0 | 0 | 0 | 0 | 0 | 0 | 0 | 0 | 0 | 0 | 30 | 0 | 0 | Plant response rating, Foxtail, Giant ([11]; 125 g ai/ha): 0; Plant response rating, Foxtail, Giant ([11]; 500 g ai/ha): 0; Plant response rating, Morningglory ([12]; 125 g ai/ha): 0; Plant response rating, Morningglory ([12]; 500 g ai/ha): 0; Plant response rating, Pigweed ([13]; 125 g ai/ha): 0; Plant response rating, Pigweed ([13]; 500 g ai/ha): 0; Plant response rating, Velvetleaf ([14]; 125 g ai/ha): 0; Plant response rating, Velvetleaf ([14]; 500 g ai/ha): 0; Plant response rating, Wheat ([15]; 125 g ai/ha): 0; Plant response rating, Wheat ([15]; 500 g ai/ha): 0; Plant response rating, Corn ([16]; 125 g ai/ha): 0; Plant response rating, Corn ([16]; 500 g ai/ha): 0; Plant response rating [17]: 0; Plant response rating [18]: 0; Plant response rating [19]: 0; Plant response rating [20]: 0

Reference: patent publication US9944602B2, “Piperidinone herbicides” (E. I. DU PONT DE NEMOURS AND COMPANY, priority 2014, dated 2018)
